Test results as given in article PMC3500438 (Organic letters, 2012).
Entries after “also recorded” stand apart in the source; their conditions may differ.

Tests used:
[1] = test system: rat PDE4 (Rolipram); assay: rat Rolipram radioligand binding; design: species or system Wistar rat; details: for IC50: read-out: rat Rolipram IC50; for IC50 / Ki: Wistar rat brain, 1.8 nM [3H] rolipram, 1% DMSO, 60 min at 4 °C, 50 mM Tris-HCl, pH 7.4; for Ki: read-out: rat Rolipram Ki
[2] = test system: 68 GPCRs, ion channels and transporters; assay: Lead Profiling screen; assay type: binding; details: 10 μM, 68 targets
[3] = test system: healthy cells; details: cited from earlier work
[4] = cited from earlier work
[5] = molecular target: 5-HT2B (Homo sapiens, UniProt P41595); assay: Lead Profiling screen radioligand binding, 5-HT2B
Sequence of 5-HT2B (P41595 whole entry, species assumed): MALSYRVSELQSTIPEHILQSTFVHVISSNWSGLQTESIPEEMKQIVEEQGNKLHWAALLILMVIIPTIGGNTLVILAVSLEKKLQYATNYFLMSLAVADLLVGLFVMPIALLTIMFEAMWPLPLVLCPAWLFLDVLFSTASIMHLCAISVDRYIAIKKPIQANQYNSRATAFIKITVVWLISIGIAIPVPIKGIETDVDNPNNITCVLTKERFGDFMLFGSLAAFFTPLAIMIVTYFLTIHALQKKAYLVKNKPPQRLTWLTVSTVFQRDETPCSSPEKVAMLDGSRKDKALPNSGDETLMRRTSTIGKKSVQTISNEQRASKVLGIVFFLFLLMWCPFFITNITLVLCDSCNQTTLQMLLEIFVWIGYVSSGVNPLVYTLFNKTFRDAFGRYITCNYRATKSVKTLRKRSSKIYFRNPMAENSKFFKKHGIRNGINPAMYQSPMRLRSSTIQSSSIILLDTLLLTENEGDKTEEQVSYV

[6] = test system: 97 kinases (both wild-type and mutants); assay: KINOMEscan panel; assay type: binding; details: 10 μM

Compound	PDE4 activity (in words) ([1]; rat PDE4 (Rolipram) and human PDE4)	IC50 [1] [µM]	Ki [1] [µM]	ancillary pharmacology in Lead Profiling screen [2]	toxicity to healthy cells / cytotoxicity [3]	PDE4/Rolipram activity in radioligand binding panel ([1]; 10 μM) [%]	antimalarial activity [4]	5-HT2B activity in radioligand binding panel ([5]; 10 μM) [%]	Ki ([5]; read-out: 5-HT2B Ki, full concentration-response-curve) [µM]	activity in KINOMEscan panel [6]
Cc1nc2ccccc2c2cc[nH]c12 [compound 1, marinoquinoline A]	inactive	> 100	> 100	–	–	–	–	–	–	–
Nc1ncnc2c1ncn2Cc1nc2ccccc2c2cc[nH]c12 [compound 6, aplidiopsamine A]	–	3.3	1.2	activity at only two targets	without toxicity to healthy cells; also recorded: not be cytotoxic	74	potent antimalarial agent	62	~10	uniformly inactive
